Measured values published in the NIST ThermoML archive (doi:10.1021/je200121f).

Assays:
[1] = refractive index (Na D-line) (dimensionless); xn = mol fraction of the nth substance listed; settings: 101 kPa, Liquid, Standard Abbe refractometry
[2] = xn = mol fraction of the nth substance listed; settings: for surface tension liquid-gas: Ring tensiometer; for viscosity / speed of sound / mass density: 101 kPa, Liquid; for viscosity: Capillary tube (Ostwald / Ubbelohde) method; for speed of sound: Sing-around technique in a fixed-path interferometer; for mass density: Vibrating tube method

C[C@H](O)CN [(2S)-1-amino-2-propanol] + CN1CCCC1=O
Settings	mass density, 293.15 K [kg/m3]	refractive index, 293.15 K	refractive index, 303.15 K	refractive index, 313.15 K	refractive index, 323.15 K	speed of sound, 293.15 K [m/s]	surface tension liquid-gas, 293.15 K [mN/m]	surface tension liquid-gas, 303.15 K [mN/m]	viscosity, 293.15 K [mPa·s]	viscosity, 303.15 K [mPa·s]
[1], x2 = 0	–	1.448	1.4442	1.4401	1.436	–	–	–	–	–
[1], x2 = 0.1034	–	1.4503	1.4464	1.4423	1.4382	–	–	–	–	–
[1], x2 = 0.2008	–	1.4523	1.4484	1.4445	1.4401	–	–	–	–	–
[1], x2 = 0.3001	–	1.4545	1.4505	1.4464	1.4421	–	–	–	–	–
[1], x2 = 0.4002	–	1.4567	1.4527	1.4488	1.4442	–	–	–	–	–
[1], x2 = 0.4978	–	1.4585	1.4547	1.4506	1.4464	–	–	–	–	–
[1], x2 = 0.5943	–	1.4607	1.4567	1.4528	1.4482	–	–	–	–	–
[1], x2 = 0.7	–	1.4632	1.4591	1.4548	1.4506	–	–	–	–	–
[1], x2 = 0.7993	–	1.4655	1.4614	1.4572	1.4529	–	–	–	–	–
[1], x2 = 0.8913	–	1.4675	1.4635	1.4594	1.4552	–	–	–	–	–
[2], x2 = 0	960.8	–	–	–	–	1560.8	37.6	36.9	31.67	17.71
[2], x2 = 0.1034	968.2	–	–	–	–	1553.5	38.1	37.3	18.96	11.49
[2], x2 = 0.2008	975.3	–	–	–	–	1549.1	38.5	37.8	12.72	8.051
[2], x2 = 0.3001	982.8	–	–	–	–	1547.5	39	38.3	8.746	5.78
[2], x2 = 0.4002	989.5	–	–	–	–	1546	39.5	38.8	7.694	5.21
[2], x2 = 0.4978	996.5	–	–	–	–	1546.2	40	39.2	6.542	4.723
[2], x2 = 0.5943	1003.3	–	–	–	–	1547.4	40.7	39.5	5.578	4.271
[2], x2 = 0.7	1010.9	–	–	–	–	1550.9	41.2	40.1	4.249	3.395
[2], x2 = 0.7993	1018.1	–	–	–	–	1554.8	41.5	40.7	3.533	2.909
[2], x2 = 0.8913	1025	–	–	–	–	1559.4	42.1	41	3.098	2.576
